We go through 1 compound from US20240100027A1, “INHIBITION OF PROSTAGLANDIN DEGRADING ENZYME 15-PGDH TO IMPROVE JOINT STRUCTURE AND FUNCTION” (The Board of Trustees of the Leland Stanford Junior …, priority 2020, published 2024).

For experiment [1], the system named is human OA cartilage explants. Kind of experiment: Human OA cartilage explants: Luminex cytokine panel on culture medium. It counts as cell-based. The note with it: culture medium (secretome) of SW treated explants vs vehicle. An excerpt:
(§1) Human cartilage tissue collection and treatment. Human cartilage samples were harvested from the surgical knee tissue discards of patients (n>5, age ranging from 55-75 years) undergoing total knee arthroplasty according to approved human subjects institutional review board protocols at Stanford University. Informed, written consent was given by the patients prior to the study. Cylindrical explants (4 mm diameter, 2-4 mm thickness) were extracted from the cartilage samples using standard biopsy punches (Integra, NJ. USA). Cartilage explants were cultured in DMEM-F12 medium supplemented with 10% fetal bovine serum (FBS), 25 μg mL^−1 ascorbic acid, 1× glutamine, and 1× antibiotic-antimycotic solution prior to experiments. To assess the effect of 15-PGDH inhibition, explants were treated with Vehicle (DMSO) or SW (10 uM) for 1 week prior to the assessment. Fresh media was added to the explants every other day.
(§2) Luminex Assay. This assay was performed at the Human Immune Monitoring Center at Stanford University. Human 76-plex or mouse 48-plex kits (eBioscience/Affymetrix) were used according to the manufacturer's recommendations. Briefly, antibody beads and samples were added to a 96-well plate and incubated at room temperature for 2 hours, followed by overnight incubation at 4° C. with shaking at 500 to 600 rpm. Plates were then washed in a w ash buffer, and biotinylated detection antibody was added for 2 hours at room temperature with shaking. Plate was washed, and streptavidin-phycoerythrin was added After 40 min incubation and washes, reading buffer was added to the wells Plates were read using a Luminex 200 instrument with a lower bound of 50 beads per sample per cytokine. Custom assay control beads were added to all wells. The raw MFI read-outs of all samples were used and analyzed by GraphPad prism.
(§3) Next, the effects of 15-PGDH inhibition in human OA cartilage were tested. […] Sulphated glycosaminoglycans (sGAG) were also independently quantified through measurements with the DMMB dye. […]

In experiment [2] the test system is human OA cartilage explants. Description: Human OA cartilage explants: Safranin O staining. The experiment is classed as cell-based. The note with it: SW 10 uM, 1 week, all zones, especially middle and deep zone.
Text: as §1
After 1 week of treatment with SW, explants were fixed in 4% paraformaldehyde, washed with PBS, and cryopreserved in 30% sucrose solution overnight. […] Explants from at least five different patient donors and multiple (>5) sections were used for quantitative analysis.
as §3

The next experiment concerns cartilage from aged mice. Kind of experiment: RNA-seq, differential gene expression and Ingenuity Pathway Analysis of cartilage from aged mice treated systemically. The experiment is classed as in vivo.
Experiment [3] relates to human OA cartilage explants. Description: Human OA cartilage explants: DMMB assay for sGAG. The experiment is classed as cell-based. The note with it: SW 10 uM, 7 days, vs vehicle.
Text: Human cartilage tissue collection and treatment. Human cartilage samples were harvested from the surgical knee tissue discards of patients (n>5, age ranging from 55-75 years) undergoing total knee arthroplasty according to approved human subjects institutional review board protocols at Stanford University. Informed, written consent was given by the patients prior to the study. Cylindrical explants (4 mm diameter, 2-4 mm thickness) were extracted from the cartilage samples using standard biopsy punches (Integra, NJ. USA). […]
1,9-dimethylmethylene Blue (DMMB) and Pico-green Assays. […] Briefly, 20 μL sample was mixed with 200 μL DMMB solution (16 mg DMMB dye dissolved in an aqueous solution of 0.03 m NaCl, 40 mm glycine, 9.5% 0.1 m acetic acid, pH 3.0) and absorbance was measured at 525 nm immediately. […] The DNA content in OA explants was measured by Pico-green assay (Quant-iT Pico-green dsDNA Assay Kit, Invitrogen) as per manufacturer's instructions using the same papain digest supernatant of the OA explants. Quantified sulfated GAG content in OA cartilage explants was normalized to the weight of corresponding explants and the DNA content.
as §3

In experiment [4] the test system is inflammatory cytokine levels. Description: Luminex cytokine panel on serum of OA mice given intra-articular injections. The experiment is classed as in vivo. The note with it: vs vehicle.
Text: Tibia loading to induce osteoarthritis in young mice. Briefly, mice were anesthetized using 2.5% isoflurane inhalation under 4 L/min of oxygen. The right tibia was positioned vertically, with the ankle upward and the knee downward in deep flexion between loading cups. Using a material testing machine (Instron ElectroPulse E1000), axial compression was applied through the knee via the upper cup, while the lower cup was fixed and linked to the load cell. The ACL tear was confirmed by the release of compressive force during compression. Mice were allowed to progress for 6 weeks after loading (n=8 for each group). Contralateral left limb served as a non-loaded control. Mice blood serum was collected via retro-orbital bleeding to do multiplex autoantibody assay. Mice were sacrificed by cervical dislocation and knee joint were collected for assessment.
as §2
To test whether 15-PGDH inhibition would be protective in younger, adult mice upon induction of OA, OA was induced in young, adult mice (3 months old) by application of tibial compression on the mouse knee leading to anterior crucial ligament (ACL) rupture. This injury model recapitulates ACL injury frequently observed in human patients. After 1 week of injury, local intra-articular injections of vehicle or SW were given twice a week for 4 weeks. […] Upon blinded scoring of mice knee joints based on the OARSI scoring system, it was observed that the maximal damage score. […] To assess the inflammation in these mice, serum was utilized from vehicle or SW injected mice to test for a 39-plex Luminex cytokine panel. […] These observations corroborated that local 15-PGDH inhibition by SW treatment not only enhances cartilage regeneration but also decreases the inflammation in osteoarthritic mice.

Where [5] appears, read: SW treated aged cartilage, almost to the levels of young cartilage.
[6] abbreviates: aged cartilage, SW vs vehicle, among 301 DEGs.

Protocol for cartilage from aged mice: Mice handling. […] Aged (24-28 mo.) mice C57BL/6 were obtained from the US National Institute on Aging (NIA) aged colony.
RNA extraction and library preparation from mouse joints for RNA seq. Knee joint microdissection was performed under a stereoscope to collect cartilage tissue by carefully eliminating any tendons, synovial membrane and meniscal residue and then shaving the cartilage tissue from the underlying bone (Smeriglio et al., 2020, Sci Transl. Med. 12:eaax2332). The isolated cartilage tissue was kept in RNA later (Ambion) and stored at −80° C. for later use. Cartilage tissue was homogenized in Trizol using a bullet blender (Next Advance), followed by RNA extraction and purification using RNeasy micro-kit (Qiagen). cDNA libraries were constructed from 10 ng total RNA using SMARTer stranded Total RNA-Seq kit v3 (Takara Bio). Libraries were sequenced to 25-30×10^6 150-bp paired end reads per sample on an Illumina NovaSeq platform (Novogene, CA).
Differential Gene Expression Analysis. For the RNA-seq analysis, pseudo aligner Salmon was used to quantify the expression of transcripts. Sequences were also aligned against the Mus musculus genome (mm9) using the STAR aligner. A counts matrix containing the number of counts for each gene and each sample was obtained. This matrix was analyzed by DESeq2 to calculate statistical analysis of significance of genes between samples. […] Functional analysis of differentially expressed genes was analyzed using Ingenuity Pathway Analysis (IPA) and DAVID bioinformatic tools.
To identify the downstream molecular pathways through which 15-PGDH may exert its effect on aged cartilage, transcriptomic analysis of vehicle and SW treated cartilage from aged mice (24 mo) was performed and compared to cartilage from young adult mice (3 mo) through RNA-seq.

In the case of `CCCC[S+]([O-])c1sc2nc(-c3cccs3)cc(-c3ccccc3)c2c1N` (centres unmarked) [SW033291, 2-(butylsulfinyl)-4-phenyl-6-(thiophen-2-yl)thieno[2,3-b]pyridin-3-amine], in experiment [1], the CCL5 level entry is on record as “significant reduction”, the GMCSF level entry is given as “significant reduction” and the IL6 level result is “significant reduction”. Besides, the “GAG staining (Safranin O)” value in experiment [2] is on record as “increase in GAG staining”. Besides, the “genes involved in mitochondrial function and metabolism (IPA)” value with cartilage from aged mice (SW treated aged cartilage) is on record as “significant upregulation”. In the experiment with cartilage from aged mice (setting [5]), the COX5a expression result is recorded as “significantly upregulated” and the Ndufa9 expression entry is on record as “significantly upregulated”. In the experiment with cartilage from aged mice (setting [6]), the “number of downregulated differentially expressed genes” value amounted to 154 and the “number of upregulated differentially expressed genes” value is reported as 147. Besides, the “GAG content (sGAG, DMMB dye)” value in experiment [3] is “significantly increased”. Further, in experiment [4], the CCL4 level entry was “significant downregulation”, the CCL7 level entry is recorded as “significant downregulation”, the CXCL10 level result is “significant downregulation” and the IL2 level entry is listed as “significant downregulation”. In addition, in experiment [4], the IL27 level result was “significant downregulation”, the VEGF level entry was “significant downregulation” and the inflammatory cytokine levels result is “overall reduction”.
